# According to PubChem BioAssay AID1963868 (Molecular Pharmacology Branch, DTP, NCI, 2024):
# Test system: KRAS PDC tumor spheroids (HUVEC+MSC), viability
# Experiment: Anticancer human tumor 254851-301-R-J1-PDC patient-derived colon carcinoma cell line growth inhibition [KRAS2]
# Details: for IC50: curve of first compound; for viability, T/C: stronger effect = lower value
# In short: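 KRAS-mutant tumor cells were grown as spheroids with HUVEC endothelial cells and human MSCs as stroma. Targeted agents were tested alone and with KRAS pathway inhibitors. Doses started at or near clinical Cmax, or 10 microM, descending half-log.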
# [1] = second compound 0.1 µM, first compound 0.0316 µM
# [2] = second compound 0.1 µM, first compound 0.1 µM
# [3] = second compound 0.1 µM, first compound 0.316 µM
# [4] = second compound 0.1 µM, first compound 1 µM
# [5] = second compound 0.1 µM, first compound 3.16 µM
# [6] = second compound 0.1 µM, first compound 10 µM
# [7] = second compound 0.316 µM, first compound 0.0316 µM
# [8] = second compound 0.316 µM, first compound 0.1 µM
# [9] = second compound 0.316 µM, first compound 0.316 µM
# [10] = second compound 0.316 µM, first compound 1 µM
# [11] = second compound 0.316 µM, first compound 3.16 µM
# [12] = second compound 0.316 µM, first compound 10 µM
# [13] = second compound 1 µM, first compound 0.0316 µM
# [14] = second compound 1 µM, first compound 0.1 µM
# [15] = second compound 1 µM, first compound 0.316 µM
# [16] = second compound 1 µM, first compound 1 µM
# [17] = second compound 1 µM, first compound 3.16 µM
# [18] = second compound 1 µM, first compound 10 µM
# [19] = second compound 3.16 µM, first compound 0.0316 µM
# [20] = second compound 3.16 µM, first compound 0.1 µM
# [21] = second compound 3.16 µM, first compound 0.316 µM
# [22] = second compound 3.16 µM, first compound 1 µM
# [23] = second compound 3.16 µM, first compound 3.16 µM
# [24] = second compound 3.16 µM, first compound 10 µM
# [25] = second compound 10 µM, first compound 0.0316 µM
# [26] = second compound 10 µM, first compound 0.1 µM
# 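Also: spheroids exposed to compounds for seven days before readout.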
# 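For viability, T/C in this document: 100% = DMSO vehicle control luminescence of the spheroids.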
smiles,measurement,setting,value
Cn1nccc1Nc1nccc(-c2cc3c(s2)C(C)(C)N(CCN2CCOCC2)C3=O)n1 + COc1cc2nc(C)nc(NC(C)c3cc(N)cc(C(F)(F)F)c3)c2cc1OC1CCOC1,IC50,second compound 0.1 µM,1.97 µM
same,IC50,second compound 0.316 µM,1.81 µM
same,IC50,second compound 1 µM,1.53 µM
same,IC50,second compound 3.16 µM,0.564 µM
same,IC50,second compound 10 µM,0.445 µM
same,"viability, T/C",[1],101%
same,"viability, T/C",[2],97%
same,"viability, T/C",[3],82.6%
same,"viability, T/C",[4],71.5%
same,"viability, T/C",[5],35.9%
same,"viability, T/C",[6],3.63%
same,"viability, T/C",[7],98.4%
same,"viability, T/C",[8],83.2%
same,"viability, T/C",[9],77.2%
same,"viability, T/C",[10],74.3%
same,"viability, T/C",[11],29.1%
same,"viability, T/C",[12],3.95%
same,"viability, T/C",[13],85.5%
same,"viability, T/C",[14],86.7%
same,"viability, T/C",[15],72.7%
same,"viability, T/C",[16],70%
same,"viability, T/C",[17],17.6%
same,"viability, T/C",[18],4.11%
same,"viability, T/C",[19],87.8%
same,"viability, T/C",[20],80.2%
same,"viability, T/C",[21],66.5%
same,"viability, T/C",[22],35%
same,"viability, T/C",[23],4.08%
same,"viability, T/C",[24],2.21%
same,"viability, T/C",[25],72.2%
same,"viability, T/C",[26],71.2%
same,"viability, T/C","second compound 10 µM, first compound 0.316 µM",56.9%
same,"viability, T/C","second compound 10 µM, first compound 1 µM",31.1%
same,"viability, T/C","second compound 10 µM, first compound 3.16 µM",2.79%
same,"viability, T/C","second compound 10 µM, first compound 10 µM",1.54%
COc1cc(Nc2ncc3c(n2)-c2ccc(Cl)cc2C(c2c(F)cccc2OC)=NC3)ccc1C(=O)O + C=CC(=O)N1CCN(c2nc(OCC3CCCN3C)nc3c2CCN(c2cccc4cccc(C)c24)C3)CC1CC#N,IC50,second compound 0.0316 µM,0.0892 µM
same,IC50,second compound 0.1 µM,0.0872 µM
same,IC50,second compound 0.316 µM,0.0891 µM
same,IC50,second compound 1 µM,0.078 µM
same,IC50,second compound 3.16 µM,0.0346 µM
same,"viability, T/C","second compound 0.0316 µM, first compound 0.0316 µM",84.6%
same,"viability, T/C","second compound 0.0316 µM, first compound 0.1 µM",41.6%
same,"viability, T/C","second compound 0.0316 µM, first compound 0.316 µM",30.3%
same,"viability, T/C","second compound 0.0316 µM, first compound 1 µM",27.5%
same,"viability, T/C","second compound 0.0316 µM, first compound 3.16 µM",17.7%
same,"viability, T/C","second compound 0.0316 µM, first compound 10 µM",9.36%
same,"viability, T/C",[1],82.4%
same,"viability, T/C",[2],40%
same,"viability, T/C",[3],31.1%
same,"viability, T/C",[4],27%
same,"viability, T/C",[5],16.2%
same,"viability, T/C",[6],8.9%
same,"viability, T/C",[7],79.4%
same,"viability, T/C",[8],40.6%
same,"viability, T/C",[9],32.7%
same,"viability, T/C",[10],24.5%
same,"viability, T/C",[11],17%
same,"viability, T/C",[12],7.34%
same,"viability, T/C",[13],73.5%
same,"viability, T/C",[14],37.5%
same,"viability, T/C",[15],32%
same,"viability, T/C",[16],25.9%
same,"viability, T/C",[17],16.4%
same,"viability, T/C",[18],8.35%
same,"viability, T/C",[19],53.9%
same,"viability, T/C",[20],22.1%
same,"viability, T/C",[21],19.8%
same,"viability, T/C",[22],17%
same,"viability, T/C",[23],6.88%
same,"viability, T/C",[24],1.67%
CC(C)n1nc(-c2ccc3oc(N)nc3c2)c2c(N)ncnc21 + CC1OCC2(CCN(c3cnc(Sc4ccnc(N)c4Cl)c(N)n3)CC2)C1N,IC50,second compound 0.1 µM,0.0175 µM
same,IC50,second compound 0.316 µM,0.0205 µM
same,IC50,second compound 1 µM,0.0186 µM
same,IC50,second compound 3.16 µM,0.0158 µM
same,IC50,second compound 10 µM,0.0113 µM
same,"viability, T/C","second compound 0.1 µM, first compound 0.000316 µM",103%
same,"viability, T/C","second compound 0.1 µM, first compound 0.001 µM",98.2%
same,"viability, T/C","second compound 0.1 µM, first compound 0.00316 µM",89.3%
same,"viability, T/C","second compound 0.1 µM, first compound 0.01 µM",69.8%
same,"viability, T/C",[1],29.4%
same,"viability, T/C",[2],19.9%
same,"viability, T/C","second compound 0.316 µM, first compound 0.000316 µM",101%
same,"viability, T/C","second compound 0.316 µM, first compound 0.001 µM",99.7%
same,"viability, T/C","second compound 0.316 µM, first compound 0.00316 µM",88.8%
same,"viability, T/C","second compound 0.316 µM, first compound 0.01 µM",75.3%
same,"viability, T/C",[7],34.4%
same,"viability, T/C",[8],23.2%
same,"viability, T/C","second compound 1 µM, first compound 0.000316 µM",87.1%
same,"viability, T/C","second compound 1 µM, first compound 0.001 µM",78.5%
same,"viability, T/C","second compound 1 µM, first compound 0.00316 µM",84.5%
same,"viability, T/C","second compound 1 µM, first compound 0.01 µM",64.8%
same,"viability, T/C",[13],36.8%
same,"viability, T/C",[14],19.6%
same,"viability, T/C","second compound 3.16 µM, first compound 0.000316 µM",74.7%
same,"viability, T/C","second compound 3.16 µM, first compound 0.001 µM",72.5%
same,"viability, T/C","second compound 3.16 µM, first compound 0.00316 µM",72.3%
same,"viability, T/C","second compound 3.16 µM, first compound 0.01 µM",63.1%
same,"viability, T/C",[19],30.2%
same,"viability, T/C",[20],18.4%
same,"viability, T/C","second compound 10 µM, first compound 0.000316 µM",65%
same,"viability, T/C","second compound 10 µM, first compound 0.001 µM",71.7%
same,"viability, T/C","second compound 10 µM, first compound 0.00316 µM",66.6%
same,"viability, T/C","second compound 10 µM, first compound 0.01 µM",50.9%
same,"viability, T/C",[25],31.3%
same,"viability, T/C",[26],18.1%
